{
  "source": "patent US12397026B2",
  "about": "“Dietary supplement” (SOCIÉTÉ DES PRODUITS NESTLÉ S.A., priority 2015, dated 2025)",
  "data": [
    {"system": "probiotic bacteria preblend (Lactobacillus rhamnosus GG1 and Bifidobacterium lactis BB12)", "type": "cell-based", "settings": "iron fortifying agent combined with probiotic bacteria", "protocol": "For practical reasons (accuracy in weighed amount), the amounts have been multiplied by 5.\nFive preparations containing various iron fortifying agents and probiotic bacteria, and a control composition containing pro biotic bacteria and no iron fortifying agent were tested, as follows:\nFor each preparation, the required amount of iron fortificant was weighed. The iron fortificant was mixed with the specified amount of diluent TS+, i.e., a reconstitution solution with Tryptone, Sodium Chloride and Antifoam at 37° C. having the following composition:\nThe mixture was agitated until complete homogenization of the solution (3 min).\nThe probiotic bacteria preblend (PP036) was added and the mixture agitated for 1 min.\nEach of the six preparations were analysed in triplicate.\nBacterial viability was determined immediately after preparation by plating of serial dilutions and subsequent counting of colony forming units. […] The principle of the method is the following: • Samples containing probiotics are weighed, rehydrated in a diluent (TS+) and homogenized by stomaching. • Serial decimal dilutions are performed in the same diluent (TS+) • 1 mL of each appropriate dilution is transferred to Petri dishes and mixed with a specific agar (pour-plate method) • The inoculated solidified agar plates are incubated under specific conditions enabling colony formation by the target bacteria (selective enumeration) • Colonies are counted and results are calculated and expressed in colony forming units per gram of sample (CFU/g).", "values": [
      {"substance": "ferric pyrophosphate", "Effect on viability of probiotic bacteria (in words)": "does not decrease bacterial viability"},
      {"substance": "ferrous sulfate", "Effect on viability of probiotic bacteria (in words)": "caused a significant loss of bacteria viability"},
      {"substance": "ferric ammonium citrate", "Effect on viability of probiotic bacteria (in words)": "caused a significant loss of bacteria viability"},
      {"substance": "ferrous bisglycinate", "Effect on viability of probiotic bacteria (in words)": "caused a significant loss of bacteria viability"}
    ]}
  ]
}
